# Experimental data taken from US20230324368A1, “Systems, Devices And Methods For Cell Analysis Using ChemFET Sensor Arrays” (Life Technologies Corporation, priority 2020, published 2023).
# Tests used:
# [1] = test system: HEPG2 cells; assay: Label-free metabolic profiling (glucose restriction / glucose reintroduction) on ChemFET sensor array, HEPG2 cells; format: cell-based, human
# Excerpt: FIG. 18A through FIG. 18B are graphs of data collected during metabolic profiling studies using HEPG2 cells (ATCC-HB-8065), while FIG. 19A and FIG. 19B are graphs of data collected during metabolic profiling studies using A673 cells (ECACC 85111504). FIG. 18A through FIG. 18B are temporal response graphs of counts equivalent to protons (CEP) in microvolts (μV) versus time. As will be described in more detail herein, the pharmacological dissection of metabolic profiling can be performed to understand the contribution of oxidative metabolism and glycolytic metabolism to metabolic profiling. Accordingly, chemical agents, such as oligomycin, antimycin A, rotenone and metformin can used to understand a contribution of oxidative metabolism to cellular response in a metabolic profiling study, while chemical agents, such as 2-deoxy-D-glucose, koningic acid, fasentin, and AM2394 can used to understand a contribution of glycolytic metabolism to cellular response in a metabolic profiling study.
# The chip devices used in the studies were ISFET chip devices selective for sensing hydrogen ions, and were chip devices such as chip device 1 of 1 of Table 1. Given that the analyses performed were for metabolic profiling, chip devices with microwells were selected as depicted for chip device 500B of FIG. 5C. […]
# (§1) Prior to seeding the devices with cells, each chip device in open format, such as open format chip device 500 of FIG. 2, and were soaked for 30 minutes with 70% ethanol in water, then rinsed with PBS and then rinsed twice with 1.5 mL of a cell culture medium, for example, Dulbecco's Modified […] Medium (DMEM; Gibco™ catalog #11995-065), Minimal Essential Medium (MEM; Gibco™ catalog #11095-080) or McCoy's 5A modified medium (Gibco™ catalog #12330-031). […] After rinsing with the cell culture medium, the devices were ready for addition to each device of a suspension of cells at a density between 5,000 to 30,000 cells in 1 to 1.5 mL of a cell culture medium, pH 7.4. […]
# [2] = test system: HEPG2 cells; conditions: FCCP 100 μM; ISFET chip device 2 with microwells; not all cells showed efflux
# Protocol: A sensor array device of the present disclosure, such as sensor array device 500 of FIG. 2, has an open structure, thereby allowing the HEPG2 cells to be cultured on the sensor surface in ^˜1 mL of cell culture media. The device was sterilized with 70% Ethanol in water, rinsed and prepared with 100 μg/mL poly-D-lysine in phosphate buffered saline prior to adding cells to facilitate cell adhesion to a chip device surface as depicted in FIG. 5B.
# For plating on the sensor array device, the HEPG2 cells were harvested from culture, resuspended at 2.5×10^5 cells per mL in complete cell culture medium (composed of Minimum Essential Medium, MEM, Thermo Fisher Scientific catalog number 11095080) plus 10% Fetal Calf Serum (FCS, Thermo Fisher Scientific Catalog number A3160401) and plated onto the sensor array device for overnight incubation in a cell culture incubator under standard conditions at 37° C. with 95% humidity and 5% carbon dioxide in room air atmosphere. […] Cells were then allowed to adhere to the prepared surface of the sensor array device and grow overnight or longer before microscopic analysis of morphology and qualitative assessment of viability. […]
# [3] = test system: A673 cells; assay: Label-free metabolic profiling (glucose restriction / glucose reintroduction) on ChemFET sensor array, A673 cells; format: cell-based; conditions: 5 μM koningic acid pretreatment during glucose restriction; 5 mM glucose reintroduction; FIG. 19A/19B
# Excerpt: FIG. 18A through FIG. 18B are graphs of data collected during metabolic profiling studies using HEPG2 cells (ATCC-HB-8065), while FIG. 19A and FIG. 19B are graphs of data collected during metabolic profiling studies using A673 cells (ECACC 85111504). FIG. 18A through FIG. 18B are temporal response graphs of counts equivalent to protons (CEP) in microvolts (μV) versus time. As will be described in more detail herein, the pharmacological dissection of metabolic profiling can be performed to understand the contribution of oxidative metabolism and glycolytic metabolism to metabolic profiling. […]
# as §1
# [4] = test system: HEPG2 cells; assay: Control microscopy with calcein acetoxymethyl (AM) ester live-cell indicator, HEPG2 cells; format: cell-based, human; conditions: 5 μM koningic acid treated cells, after experiment of FIG. 18B
# Protocol: (§2) After completion of each experiment represented by FIG. 18A and FIG. 18B for the HEPG2 cells, and by FIG. 19A and FIG. 19B for the A673 cells, control microscopy studies using calcein acetoxymethyl (AM) ester, a known fluorescent indicator of live cells, were performed. […] These control microscopy studies confirmed that what was observed using the ChemFET-based cell analysis system to perform the studies represented by FIG. 18A through FIG. 19B for both HEPG2 and A673 cells were observed using live cells.
# [5] = test system: A673 cells; assay: Control microscopy with calcein acetoxymethyl (AM) ester live-cell indicator, A673 cells; format: cell-based; conditions: 5 μM koningic acid treated cells, after experiment of FIG. 19B
# Protocol: as §2
structure (smiles),measurement,setting,value
CC[C@H]1/C=C/C=C/C[C@@H](C)[C@H](O)[C@@](C)(O)C(=O)[C@@H](C)[C@H](O)[C@@H](C)C(=O)[C@@H](C)[C@H](O)[C@@H](C)/C=C/C(=O)O[C@@H]2[C@H](C)[C@H](CC1)O[C@]1(CC[C@H](C)[C@H](C[C@@H](C)O)O1)[C@H]2C [oligomycin],"averaged temporal response, counts equivalent to protons (CEP) versus time","[1]; 1 μM oligomycin introduced at 295 seconds after glucose, control without koningic acid, FIG. 18A",potentiated
"N#CC(C#N)=NNc1ccc(OC(F)(F)F)cc1 [FCCP, carbonyl cyanide-4-(trifluoromethoxy) phenylhydrazone]",cellular response observed in electroscopic image,[2],efflux of cellular contents
CC(C)[C@H]1CC[C@@]2(CO2)[C@H]2C(=O)OCC(C(=O)O)=C[C@H]12 [koningic acid],"averaged temporal response, counts equivalent to protons (CEP) versus time","[1]; 5 μM koningic acid pretreatment during glucose restriction, two to three hours, then glucose, oligomycin, 2-deoxy-D-glucose, FIG. 18B",no change in the averaged signal
same,averaged temporal response (CEP) to glucose reintroduction with and without koningic acid,[3],comparable to the results using HEPG2 cells
same,"acute toxicity, calcein staining profile versus control vehicle treated cultures",[4],no acute toxicity
same,"acute toxicity, calcein staining profile versus control vehicle treated cultures",[5],no acute toxicity
O=CC[C@@H](O)[C@H](O)[C@H](O)CO [2-deoxy-D-glucose],"averaged temporal response, counts equivalent to protons (CEP) versus time","[1]; 50 mM 2-deoxy-D-glucose introduced at 371 seconds after oligomycin, control without koningic acid, FIG. 18A",attenuated
